Common to all, as to type: biochemical
In one test the target is T1, JAK3 (Homo sapiens, UniProt P52333).
T1 sequence (P52333 1-1124): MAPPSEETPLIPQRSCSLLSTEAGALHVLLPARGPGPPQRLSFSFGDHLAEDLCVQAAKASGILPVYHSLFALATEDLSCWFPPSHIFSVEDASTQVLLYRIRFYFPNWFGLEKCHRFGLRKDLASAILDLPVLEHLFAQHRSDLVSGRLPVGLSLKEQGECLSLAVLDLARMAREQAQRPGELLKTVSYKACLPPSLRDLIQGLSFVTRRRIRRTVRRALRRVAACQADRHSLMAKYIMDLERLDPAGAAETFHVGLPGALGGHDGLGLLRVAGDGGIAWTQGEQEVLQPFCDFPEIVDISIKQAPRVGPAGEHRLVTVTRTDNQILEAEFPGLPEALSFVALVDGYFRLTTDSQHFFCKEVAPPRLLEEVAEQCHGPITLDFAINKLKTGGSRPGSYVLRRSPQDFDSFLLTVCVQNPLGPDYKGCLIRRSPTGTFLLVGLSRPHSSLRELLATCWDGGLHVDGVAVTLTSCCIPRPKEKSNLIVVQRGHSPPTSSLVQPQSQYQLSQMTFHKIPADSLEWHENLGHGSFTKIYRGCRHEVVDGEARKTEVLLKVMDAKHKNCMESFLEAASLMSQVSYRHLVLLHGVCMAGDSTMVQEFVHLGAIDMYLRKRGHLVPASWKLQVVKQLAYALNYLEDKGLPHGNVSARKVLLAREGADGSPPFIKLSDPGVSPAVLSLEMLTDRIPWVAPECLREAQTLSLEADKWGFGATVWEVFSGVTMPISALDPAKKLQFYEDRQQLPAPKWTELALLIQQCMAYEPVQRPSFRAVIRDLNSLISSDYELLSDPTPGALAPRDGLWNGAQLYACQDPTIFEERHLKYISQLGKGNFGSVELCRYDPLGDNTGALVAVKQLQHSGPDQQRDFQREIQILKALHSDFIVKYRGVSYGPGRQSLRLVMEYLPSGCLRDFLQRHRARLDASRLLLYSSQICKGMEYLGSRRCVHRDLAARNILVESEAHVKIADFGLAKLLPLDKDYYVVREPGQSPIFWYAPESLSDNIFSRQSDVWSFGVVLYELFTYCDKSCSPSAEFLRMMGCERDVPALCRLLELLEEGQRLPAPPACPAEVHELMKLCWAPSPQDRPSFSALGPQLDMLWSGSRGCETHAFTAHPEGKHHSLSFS
Kind of test: JAK3 inhibition assay (standard radioactive enzyme assay). The settings on record: average Ki if more than one value determined.

A further test addresses JAK2 (Homo sapiens, UniProt O60674). The experiment in a line: JAK2 inhibition assay (radioactive enzyme assay, as for JAK3). The settings on record: average Ki if more than one value determined. In a few lines: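 Both kinases: poly(Glu)4Tyr substrate in 100 mM HEPES pH 7.4, 10 mM MgCl2, 1 mM DTT. Run 20 min at 25° C, TCA stop, filter-bound ³³P counted, Ki(app) fitted after background subtraction. JAK3: final [γ-³³P]ATP 5 μM, enzyme added as 2 nM solution. JAK2: final poly(Glu)4Tyr 15 μM, final ATP 12 μM.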

For another test, the target named is T2, ROCK I (AA 6-553) (Homo sapiens, UniProt Q13464).
T2 construct: ROCK I (AA 6-553)
T2 sequence (Q13464 6-553, species assumed): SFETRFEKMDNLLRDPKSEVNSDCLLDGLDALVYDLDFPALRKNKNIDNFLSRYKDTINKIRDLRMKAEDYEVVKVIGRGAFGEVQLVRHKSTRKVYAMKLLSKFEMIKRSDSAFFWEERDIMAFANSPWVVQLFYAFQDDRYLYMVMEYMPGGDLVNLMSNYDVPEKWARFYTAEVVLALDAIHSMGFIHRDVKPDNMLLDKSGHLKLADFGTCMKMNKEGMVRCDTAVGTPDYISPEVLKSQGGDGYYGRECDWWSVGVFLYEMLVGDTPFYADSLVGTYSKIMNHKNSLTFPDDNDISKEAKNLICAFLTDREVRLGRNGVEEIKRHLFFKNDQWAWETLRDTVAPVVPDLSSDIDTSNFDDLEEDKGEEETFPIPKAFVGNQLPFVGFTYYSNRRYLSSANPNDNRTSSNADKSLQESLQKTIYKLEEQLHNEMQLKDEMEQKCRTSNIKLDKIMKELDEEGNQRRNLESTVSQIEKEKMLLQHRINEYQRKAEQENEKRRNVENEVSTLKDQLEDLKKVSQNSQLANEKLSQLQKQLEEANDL
The experiment in a line: ROCK inhibition assay, standard coupled enzyme system ("Enzyme"). The settings on record: enzyme-linked assay. The essentials: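 ROCK I (AA 6-553) at 45 nM and 30 °C with 45 μM ATP and 200 μM peptide, in 100 mM HEPES pH 7.5, 10 mM MgCl2, 25 mM NaCl, 2 mM DTT, 1.5% DMSO. ADP output read by a PK/LDH coupled system: 2.5 mM PEP, 350 μM NADH, 30 μg/ml PK, 10 μg/ml LDH.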

For test [1], the target named is T3, full length Aurora-A (AA 1-403) (Homo sapiens, UniProt O14965).
T3 construct: full length Aurora-A (AA 1-403)
T3 sequence (O14965 1-403): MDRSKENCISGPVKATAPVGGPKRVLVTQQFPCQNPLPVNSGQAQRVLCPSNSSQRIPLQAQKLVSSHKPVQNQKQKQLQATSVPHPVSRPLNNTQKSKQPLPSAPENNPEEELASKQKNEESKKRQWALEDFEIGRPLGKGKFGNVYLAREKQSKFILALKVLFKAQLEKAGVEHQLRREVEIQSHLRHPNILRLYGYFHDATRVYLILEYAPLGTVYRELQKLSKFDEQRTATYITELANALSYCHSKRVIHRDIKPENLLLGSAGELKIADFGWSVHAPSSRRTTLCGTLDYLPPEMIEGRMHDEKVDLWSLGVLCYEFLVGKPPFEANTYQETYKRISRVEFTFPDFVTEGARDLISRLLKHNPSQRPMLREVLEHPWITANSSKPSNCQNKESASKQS
The experiment in a line: Aurora-A inhibition assay, standard coupled enzyme system. The settings on record: average Ki if more than one value determined.

Sequence of JAK2 (O60674 whole entry, species assumed): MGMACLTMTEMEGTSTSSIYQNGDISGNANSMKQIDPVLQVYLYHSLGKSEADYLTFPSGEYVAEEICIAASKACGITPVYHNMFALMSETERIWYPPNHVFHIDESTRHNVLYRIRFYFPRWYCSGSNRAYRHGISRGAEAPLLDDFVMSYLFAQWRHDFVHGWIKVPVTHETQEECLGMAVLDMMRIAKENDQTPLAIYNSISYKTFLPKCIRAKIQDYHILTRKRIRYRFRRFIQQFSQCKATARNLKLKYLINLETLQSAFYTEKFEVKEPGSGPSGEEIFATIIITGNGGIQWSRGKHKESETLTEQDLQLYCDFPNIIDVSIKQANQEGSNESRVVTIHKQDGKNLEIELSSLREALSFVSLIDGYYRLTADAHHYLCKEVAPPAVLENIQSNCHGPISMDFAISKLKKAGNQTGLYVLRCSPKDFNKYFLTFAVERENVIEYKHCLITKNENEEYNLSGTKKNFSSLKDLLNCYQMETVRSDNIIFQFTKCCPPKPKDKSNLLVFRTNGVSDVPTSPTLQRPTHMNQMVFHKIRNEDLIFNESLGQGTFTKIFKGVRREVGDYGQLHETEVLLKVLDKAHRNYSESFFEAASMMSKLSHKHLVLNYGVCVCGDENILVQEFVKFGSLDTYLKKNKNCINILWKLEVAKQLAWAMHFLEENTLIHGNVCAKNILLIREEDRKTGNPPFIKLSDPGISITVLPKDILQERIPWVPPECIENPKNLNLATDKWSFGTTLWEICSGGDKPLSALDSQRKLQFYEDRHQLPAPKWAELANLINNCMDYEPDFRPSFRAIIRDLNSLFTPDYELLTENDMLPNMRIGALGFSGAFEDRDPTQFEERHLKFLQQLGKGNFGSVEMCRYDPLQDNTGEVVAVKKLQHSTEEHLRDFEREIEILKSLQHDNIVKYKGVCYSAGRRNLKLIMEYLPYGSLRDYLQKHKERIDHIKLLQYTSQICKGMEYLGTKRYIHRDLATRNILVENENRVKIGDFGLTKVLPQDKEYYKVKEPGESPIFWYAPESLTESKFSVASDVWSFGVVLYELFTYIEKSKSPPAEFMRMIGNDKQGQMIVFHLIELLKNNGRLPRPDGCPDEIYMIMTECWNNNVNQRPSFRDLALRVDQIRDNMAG

The term Ki denotes a measure of affinity in units of concentration, obtained from inhibition or displacement. In the case of `CC(C)CNc1cc(C#N)cc(-c2c[nH]c3ncc(Cl)cc23)n1` [Compound 150], the Ki on JAK3 was less than 500 nM; on JAK2 it was less than 500 nM; at ROCK I (AA 6-553), 500 to 5000 nM; in test [1], 500 to 5000 nM.
Consider `CCOC(=O)Nc1cnc2[nH]cc(-c3cccc(N4C[C@@H](C)N(C(C)=O)[C@@H](C)C4)n3)c2c1` [Compound 70], for which the Ki on JAK3 was less than 500 nM; on JAK2, less than 500 nM; on ROCK I (AA 6-553), 500 to 5000 nM; in test [1], 500 to 5000 nM.
Turning to `CC(=O)N1[C@H](C)CN(c2cccc(-c3c[nH]c4ncc(C(=O)N5CCCCC5)cc34)n2)C[C@@H]1C` [Compound 54], the Ki at JAK3 is 500 to 5000 nM; on JAK2 it was 500 to 5000 nM; at ROCK I (AA 6-553), 500 to 5000 nM; in test [1], less than 500 nM.
Take `CC(=O)N1[C@H](C)CN(c2cc(C)c(C#N)c(-c3c[nH]c4ncc(Cl)cc34)n2)C[C@@H]1C` [Compound 80]: the Ki was less than 500 nM at JAK3, less than 500 nM on JAK2, 500 to 5000 nM on ROCK I (AA 6-553) and less than 500 nM in test [1].
As to `CC(=O)N1[C@H](C)CN(c2cccc(-c3c[nH]c4ncc(F)cc34)n2)C[C@@H]1C` [Compound 50], the inhibitory constant (Ki) on JAK3 is less than 500 nM; on JAK2, less than 500 nM; at ROCK I (AA 6-553), less than 500 nM; in test [1] it was 500 to 5000 nM.
As for `CNc1cnc2[nH]cc(-c3cccc(N4C[C@@H](C)N(C(C)=O)[C@@H](C)C4)n3)c2c1` [Compound 159], the Ki on JAK3 is less than 500 nM; at JAK2, less than 500 nM; at ROCK I (AA 6-553), 500 to 5000 nM; in test [1], 500 to 5000 nM.
In the case of `CC(=O)N1[C@H](C)CN(c2nc(-c3c[nH]c4ncc(Cl)cc34)ccc2-c2nnn[nH]2)C[C@@H]1C` [Compound 120], the Ki on JAK3 was less than 500 nM; at JAK2, less than 500 nM; at ROCK I (AA 6-553), 500 to 5000 nM; in test [1] it was less than 500 nM.
`CC(=O)N1[C@H](C)CN(c2cccc(-c3c[nH]c4ncc(C(=O)NC5CCCCC5)cc34)n2)C[C@@H]1C` [Compound 58]: the inhibitory constant (Ki) at JAK3 is less than 500 nM; on JAK2, less than 500 nM; at ROCK I (AA 6-553), 500 to 5000 nM; in test [1] it was 500 to 5000 nM.
For `CC(=O)N1[C@H](C)CN(c2cccc(-c3c[nH]c4ncc(NC(=O)c5cnccn5)cc34)n2)C[C@@H]1C` [Compound 164], the Ki on JAK3 was less than 500 nM; at JAK2, less than 500 nM; at ROCK I (AA 6-553), 500 to 5000 nM; in test [1] it was 500 to 5000 nM.
For the molecule `COC(=O)c1ccc(-c2c[nH]c3ncc(Cl)cc23)nc1NCc1ccccc1` [Compound 43], the Ki at JAK3 was 500 to 5000 nM; on JAK2, 500 to 5000 nM; on ROCK I (AA 6-553) it was 500 to 5000 nM; in test [1], less than 500 nM.
Turning to `CC(=O)N1[C@H](C)CN(c2cccc(-c3c[nH]c4ncc(NC(=O)C5CCCCC5)cc34)n2)C[C@@H]1C` [Compound 158], the Ki on JAK3 is less than 500 nM; on JAK2, less than 500 nM; on ROCK I (AA 6-553), 500 to 5000 nM; in test [1], 500 to 5000 nM.
With `CC(=O)N1[C@H](C)CN(c2cccc(-c3c[nH]c4ncc(NC(=O)CCCN5CCNCC5)cc34)n2)C[C@@H]1C` [Compound 152], the Ki was less than 500 nM on JAK3, less than 500 nM on JAK2, 500 to 5000 nM on ROCK I (AA 6-553) and 500 to 5000 nM in test [1].
For the molecule `C[C@@H](CO)Nc1cccc(-c2c[nH]c3ncc(Cl)cc23)n1` [Compound 103], the Ki is less than 500 nM at JAK3, less than 500 nM on JAK2, 500 to 5000 nM on ROCK I (AA 6-553) and 500 to 5000 nM in test [1].
`CCC(=O)Nc1cnc2[nH]cc(-c3cccc(N4C[C@@H](C)N(C(C)=O)[C@@H](C)C4)n3)c2c1` [Compound 114]: the Ki at JAK3 is less than 500 nM; at JAK2, less than 500 nM; at ROCK I (AA 6-553) it was 500 to 5000 nM; in test [1], 500 to 5000 nM.
Regarding `CC(=O)N1[C@H](C)CN(c2cccc(-c3c[nH]c4ncc(NC(=O)CCCN5CCOCC5)cc34)n2)C[C@@H]1C` [Compound 153], the Ki was less than 500 nM on JAK3, less than 500 nM at JAK2, 500 to 5000 nM at ROCK I (AA 6-553) and 500 to 5000 nM in test [1].
For the molecule `CNC(=O)c1cnc2[nH]cc(-c3cccc(N4C[C@@H](C)N(C(C)=O)[C@@H](C)C4)n3)c2c1` [Compound 59], the Ki was less than 500 nM at JAK3, less than 500 nM at JAK2, 500 to 5000 nM at ROCK I (AA 6-553) and 500 to 5000 nM in test [1].
With `CC(=O)N1[C@H](C)CN(c2cccc(-c3c[nH]c4ncc(NC(=O)CCN5CCNCC5)cc34)n2)C[C@@H]1C` [Compound 128], the Ki on JAK3 was less than 500 nM; on JAK2 it was less than 500 nM; at ROCK I (AA 6-553) it was 500 to 5000 nM; in test [1], 500 to 5000 nM.
Consider `CC(=O)N1[C@H](C)CN(c2cccc(-c3c[nH]c4ncc(NC(=O)c5ccno5)cc34)n2)C[C@@H]1C` [Compound 167], for which the Ki at JAK3 is less than 500 nM; at JAK2 it was less than 500 nM; at ROCK I (AA 6-553) it was 500 to 5000 nM; in test [1], 500 to 5000 nM.
As for `CC(=O)N1[C@H](C)CN(c2cccc(-c3c[nH]c4ncc(NC(=O)c5cccc(C)c5)cc34)n2)C[C@@H]1C` [Compound 168], the Ki was less than 500 nM at JAK3, less than 500 nM at JAK2, 500 to 5000 nM at ROCK I (AA 6-553) and 500 to 5000 nM in test [1].
Consider `CC(=O)N1[C@H](C)CN(c2nc(-c3c[nH]c4ncc(Cl)cc34)ccc2N)C[C@@H]1C` [Compound 76], for which the Ki on JAK3 is less than 500 nM; at JAK2 it was less than 500 nM; at ROCK I (AA 6-553) it was 500 to 5000 nM; in test [1] it was less than 500 nM.
As to `CN(C)c1cccc(-c2c[nH]c3ncc(Cl)cc23)n1` [Compound 122], the Ki was less than 500 nM at JAK3, less than 500 nM at JAK2, 500 to 5000 nM at ROCK I (AA 6-553) and 500 to 5000 nM in test [1].
In the case of `C[C@H](CO)Nc1cccc(-c2c[nH]c3ncc(Cl)cc23)n1` [Compound 102], the Ki is less than 500 nM on JAK3, less than 500 nM at JAK2, 500 to 5000 nM on ROCK I (AA 6-553) and 500 to 5000 nM in test [1].
As for `CC(=O)N1[C@H](C)CN(c2cccc(-c3c[nH]c4ncc(NC(=O)c5cccc(F)c5)cc34)n2)C[C@@H]1C` [Compound 169], the Ki on JAK3 is less than 500 nM; on JAK2, less than 500 nM; at ROCK I (AA 6-553) it was 500 to 5000 nM; in test [1] it was 500 to 5000 nM.
For the molecule `CC(C)CNc1cccc(-c2c[nH]c3ncc(Cl)cc23)n1` [Compound 99], the Ki is less than 500 nM at JAK3, less than 500 nM at JAK2, 500 to 5000 nM on ROCK I (AA 6-553) and less than 500 nM in test [1].
Turning to `CC(=O)N1[C@H](C)CN(c2nc(-c3c[nH]c4ncc(Cl)cc34)ccc2C#N)C[C@@H]1C` [Compound 92], the Ki (at JAK3; on JAK2; on ROCK I (AA 6-553); in test [1]) was less than 500 nM in each case.
Regarding `C=C(C)C(=O)Nc1cnc2[nH]cc(-c3cccc(N4C[C@@H](C)N(C(C)=O)[C@@H](C)C4)n3)c2c1` [Compound 154], the Ki was less than 500 nM at JAK3, less than 500 nM on JAK2, 500 to 5000 nM at ROCK I (AA 6-553) and 500 to 5000 nM in test [1].

The values are drawn from US8501446B2 (Vertex Pharmaceuticals Incorporated, priority 2004, dated 2013).
